Experimental data as given in ChEMBL document CHEMBL5729105, “CD73 inhibitors” (2022).

Target: 5'-nucleotidase (Homo sapiens, UniProt P21589)
Assay: Biochemical Assay: Assay Reaction ConditionsAssay Volume: 70 μlReaction Volume: 50 μlCD73: 0.3208 nMAMP: 15 μMAssay Buffer: 25 mM Tris-HCL, pH 7.4, 0.01% Brij-35, 0.01% BSA, 5 mM MgCl2Assay Procedure:Used 384 clear plate.Made dose titration of testing compounds in assay buffer, 10 points ½ log titrations in duplicates starting at 100 μM.Added 25 μl of CD73 to each well for a final concentration of 320 pM.Incubated at RT for 15 min.Added 25 μl of AMP to each well for a final concentration of 15 μM.Incubated at RT for 10 min.Added 10 μl of Malachite Green Reagent A, incubate at RT for 10 min.Added 10 of Malachite Green Reagent B, incubate at RT for 45 min.Read the Absorbance on Envision plate reader using excitation filter: Cy5 620 nM.The ability of the compounds disclosed herein to inhibit CD73 activity was quantified and the respective IC50 values were determined.

Chain of 5'-nucleotidase (P21589 whole entry): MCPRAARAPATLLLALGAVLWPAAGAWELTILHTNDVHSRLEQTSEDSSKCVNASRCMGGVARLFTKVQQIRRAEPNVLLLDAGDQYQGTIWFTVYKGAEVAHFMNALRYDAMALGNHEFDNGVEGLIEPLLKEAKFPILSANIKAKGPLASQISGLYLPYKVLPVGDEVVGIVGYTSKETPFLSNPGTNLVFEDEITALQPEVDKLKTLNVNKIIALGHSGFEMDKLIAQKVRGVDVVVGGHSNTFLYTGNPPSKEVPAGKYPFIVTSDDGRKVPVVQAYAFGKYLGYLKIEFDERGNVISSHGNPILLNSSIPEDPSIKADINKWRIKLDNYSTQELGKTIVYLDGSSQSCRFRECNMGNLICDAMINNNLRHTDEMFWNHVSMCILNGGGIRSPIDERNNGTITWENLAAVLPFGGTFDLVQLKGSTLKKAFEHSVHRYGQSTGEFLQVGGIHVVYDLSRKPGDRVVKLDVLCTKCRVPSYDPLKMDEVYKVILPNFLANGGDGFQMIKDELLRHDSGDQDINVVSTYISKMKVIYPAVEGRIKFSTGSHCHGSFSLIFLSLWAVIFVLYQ

Question: O=P(O)(O)[C@H](CO)OC[C@H]1O[C@@H](n2ncc3c(NC4CCCC4)nc(Cl)nc32)[C@H](O)[C@@H]1O (single isomer, unassigned) was tested. Which IC50 did it give?
Answer: < 100 nM
